In US10059674B2, “Design, synthesis, and biological evaluation of 1-methyl-1, 4-dihyrdoindeno[1,2-C]pyrazole analogues as potential anticaner agents targeting tubulin colchicine binding site” (ACT PHARMA CO., LTD., priority 2016, dated 2018):
pIC50: −log10 of the molar value. Read-outs that look alike come from different tables or passages of the source.

Assays:
tubulin = test: Tubulin polymerization experiment (Cytoskeleton Tubulin Polymerization Assay Kit); format: biochemical
Description: The tubulin polymerization experiment is carried out according to the specifications of Tubulin Polymerization Assay Kit of Cytoskeleton Corporation.

[1] = monkey, microsomes, 1 µM, pH 7.47
in vitro [2] = details: human, microsomes, pH 7.47
in vitro [3] = details: mouse, liver microsomes, pH 7.47
[4] = Liver microsomal metabolism stability test; details: for Remainder: mouse liver microsomes

pIC50 (tubulin; read-out: tubulin polymerization inhibiting IC50): 5.34
Remainder ([1]; 0 h): 100.00%
Remainder ([1]; 10 min): 52.00%
Remainder ([1]; 0.5 h): 20.40%
Remainder ([1]; 1.5 h): 4.76%
half-life at 1 µM (in vitro [2]): 44.7 min
microsomal CLint at 1 µM (in vitro [2]): 31 µL/min/mg
half-life at 1 µM (in vitro [3]): 55.3 min
microsomal CLint at 1 µM (in vitro [3]): 25 µL/min/mg
metabolism in the liver microsomes (in words) ([4]; mouse): moderate
Remainder ([4]; incubation time 0 min): 100.00%
Remainder ([4]; incubation time 10 min): 87.76%
Remainder ([4]; incubation time 30 min): 63.76%
Remainder ([4]; incubation time 90 min): 32.23%
SMILES: CCOc1cccc(Nc2nn(C)c3c2Cc2cc(OCC)c(OCC(N)=O)cc2-3)c1 [LL-01]
inhibition of tubulin polymerization (in words) (tubulin; FIGS. 1 and 2): able to inhibit tubulin polymerization
